Test results taken from article PMC4043446 (Arteriosclerosis, thrombosis, and vascular biology, 2013).

Tested on: LPS-challenged mice
Assay: LPS-induced mortality in mouse endotoxemia model
Type: in vivo, C57BL/6 mice
Settings: 5 mg/kg retro-orbital prior to i.p. LPS; 10 mice/group; Kaplan-Meier

Integrilin
LPS-induced mortality (Integrilin): showed a trend in reducing
